Reference: ChEMBL document CHEMBL1201862, “PubChem BioAssay data set” (2004)
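Protocol summary: plate cells (96-well), add compound at 5 concentrations, incubate 48 h, interpolate endpoints linearly. Abbreviation: GI50, concentration required for 50% inhibition of growth.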 The source made the active and inactive calls. No stated cut-off is given here; in the data, active = GI50 up to about 1.1 µM and inactive = higher.

Assays:
Assay in all cases: NCI-60 cell line screen, 48 h
[1] = system: SF-295
[2] = system: MCF7
[3] = system: HCT-15
[4] = system: SK-MEL-28
[5] = system: NCI-H460
[6] = system: K562
[7] = system: CCRF-CEM
[8] = system: RXF 393
[9] = system: A549
[10] = system: OVCAR-5
[11] = system: SNB-75
[12] = system: NCI-H23
[13] = system: HOP-92
[14] = system: SK-OV-3
[15] = system: BT-549
[16] = system: 786-0
[17] = system: SF-539
[18] = system: SR
[19] = system: U-251
[20] = system: EKVX
[21] = system: UO-31
[22] = system: SNB-19
[23] = system: NCI/ADR-RES
[24] = system: UACC-257
[25] = system: COLO 205
[26] = system: RPMI-8226
[27] = system: HCC 2998
[28] = system: DU-145
[29] = system: KM12
[30] = system: SF-268
[31] = system: IGROV-1
[32] = system: HCT-116
[33] = system: OVCAR-8
[34] = system: PC-3
[35] = system: HT-29
[36] = system: OVCAR-4
[37] = system: M14
[38] = system: NCI-H226
[39] = system: HL-60
[40] = system: CAKI-1
[41] = system: SK-MEL-2
[42] = system: ACHN
[43] = system: MOLT-4
[44] = system: TK-10
[45] = system: SN12C
[46] = system: MDA-N
[47] = system: SK-MEL-5
[48] = system: Malme-3M
[49] = system: OVCAR-3
[50] = system: NCI-H522
[51] = system: UACC-62
[52] = system: HOP-62
[53] = system: SW-620
[54] = system: MDA-MB-231
[55] = system: A498
[56] = system: MDA-MB-435
[57] = system: Hs-578T
[58] = system: LOX IMVI
[59] = system: T47D

COc1ccc(/C=C(\C#N)c2ccccn2)cc1OC
GI50 [1]: 26.8 µM (inactive) | GI50 [2]: 17.9 µM (inactive) | GI50 [3]: 32.2 µM | GI50 [4]: 38.4 µM (inactive) | GI50 [5]: 34.3 µM (inactive) | GI50 [6]: 85.5 µM (inactive) | GI50 [7]: 60.5 µM (inactive) | GI50 [8]: 23.7 µM (inactive) | GI50 [9]: 41.5 µM (inactive) | GI50 [10]: 51.4 µM (inactive) | GI50 [11]: 21.3 µM (inactive) | GI50 [12]: 43.7 µM (inactive) | GI50 [13]: 17 µM (inactive) | GI50 [14]: 29.8 µM (inactive) | GI50 [15]: 18.6 µM (inactive) | GI50 [16]: 43.9 µM (inactive) | GI50 [17]: 31.9 µM (inactive) | GI50 [18]: 33.8 µM (inactive) | GI50 [19]: 16.3 µM (inactive) | GI50 [20]: 5.4 µM (inactive) | GI50 [21]: 29.8 µM (inactive) | GI50 [22]: 39.8 µM (inactive) | GI50 [23]: 20.4 µM (inactive) | GI50 [24]: > 100 µM (inactive) | GI50 [25]: 69.2 µM (inactive) | GI50 [26]: 45.7 µM (inactive) | GI50 [27]: 65.2 µM (inactive) | GI50 [28]: 32.1 µM (inactive) | GI50 [29]: 53.1 µM (inactive) | GI50 [30]: 33 µM (inactive) | GI50 [31]: 51.2 µM (inactive) | GI50 [32]: 31.7 µM (inactive) | GI50 [33]: > 100 µM (inactive) | GI50 [34]: 22.8 µM (inactive) | GI50 [35]: 43 µM (inactive) | GI50 [36]: 73.1 µM (inactive) | GI50 [37]: > 100 µM (inactive) | GI50 [38]: 27.2 µM (inactive) | GI50 [39]: 27.1 µM (inactive) | GI50 [40]: 60.7 µM (inactive) | GI50 [41]: 51.2 µM (inactive) | GI50 [42]: 55.8 µM (inactive) | GI50 [43]: 57.4 µM (inactive) | GI50 [44]: 63.7 µM (inactive) | GI50 [45]: 53 µM (inactive) | GI50 [46]: 42.4 µM (inactive) | GI50 [47]: 25.1 µM (inactive) | GI50 [48]: 46.8 µM (inactive) | GI50 [49]: 86.1 µM (inactive) | GI50 [50]: 39.8 µM (inactive) | GI50 [51]: 58.7 µM (inactive) | GI50 [52]: 36.7 µM (inactive) | GI50 [53]: 56.1 µM (inactive)

CCNc1cc2c3c(c1)CCN3CCC2
GI50 [54]: > 10 µM (inactive) | GI50 [1]: > 10 µM (inactive) | GI50 [2]: > 10 µM (inactive) | GI50 [3]: > 10 µM | GI50 [4]: > 10 µM (inactive) | GI50 [5]: > 10 µM (inactive) | GI50 [6]: 1.72 µM (inactive) | GI50 [7]: 4.2 µM (inactive) | GI50 [8]: > 10 µM (inactive) | GI50 [9]: > 10 µM (inactive) | GI50 [11]: > 10 µM (inactive) | GI50 [12]: > 10 µM (inactive) | GI50 [13]: > 10 µM (inactive) | GI50 [55]: > 10 µM (inactive) | GI50 [14]: > 10 µM (inactive) | GI50 [16]: > 10 µM (inactive) | GI50 [17]: > 10 µM (inactive) | GI50 [18]: 5.32 µM (inactive) | GI50 [19]: > 10 µM (inactive) | GI50 [20]: 5.86 µM (inactive) | GI50 [21]: > 10 µM (inactive) | GI50 [22]: > 10 µM (inactive) | GI50 [23]: > 10 µM (inactive) | GI50 [24]: > 10 µM (inactive) | GI50 [25]: > 10 µM (inactive) | GI50 [26]: 3.51 µM (inactive) | GI50 [27]: > 10 µM (inactive) | GI50 [28]: > 10 µM (inactive) | GI50 [29]: 5.6 µM (inactive) | GI50 [30]: > 10 µM (inactive) | GI50 [31]: > 10 µM (inactive) | GI50 [32]: > 10 µM (inactive) | GI50 [33]: 8.59 µM (inactive) | GI50 [34]: > 10 µM (inactive) | GI50 [35]: > 10 µM (inactive) | GI50 [36]: > 10 µM (inactive) | GI50 [37]: > 10 µM (inactive) | GI50 [38]: > 10 µM (inactive) | GI50 [39]: 3.23 µM (inactive) | GI50 [40]: > 10 µM (inactive) | GI50 [56]: > 10 µM (inactive) | GI50 [41]: > 10 µM (inactive) | GI50 [57]: > 10 µM (inactive) | GI50 [42]: > 10 µM (inactive) | GI50 [43]: > 10 µM (inactive) | GI50 [44]: > 10 µM (inactive) | GI50 [45]: > 10 µM (inactive) | GI50 [58]: > 10 µM (inactive) | GI50 [46]: > 10 µM (inactive) | GI50 [47]: > 10 µM (inactive) | GI50 [48]: > 10 µM (inactive) | GI50 [49]: > 10 µM (inactive) | GI50 [59]: 4.71 µM (inactive) | GI50 [50]: 5.98 µM (inactive) | GI50 [51]: > 10 µM (inactive) | GI50 [52]: > 10 µM (inactive) | GI50 [53]: 6.3 µM (inactive)

CCOC(=O)[C@H](Cc1ccc(O)cc1)/N=C1/[C@H]2CCC[C@]1(O)[C@@](C)([N+](=O)[O-])C2
GI50 [1]: > 100 µM (inactive) | GI50 [2]: > 100 µM (inactive) | GI50 [3]: > 100 µM | GI50 [4]: > 100 µM (inactive) | GI50 [5]: > 100 µM (inactive) | GI50 [6]: > 100 µM (inactive) | GI50 [7]: > 100 µM (inactive) | GI50 [8]: > 100 µM (inactive) | GI50 [9]: > 100 µM (inactive) | GI50 [10]: > 100 µM (inactive) | GI50 [12]: > 100 µM (inactive) | GI50 [13]: > 100 µM (inactive) | GI50 [55]: > 100 µM (inactive) | GI50 [14]: > 100 µM (inactive) | GI50 [15]: > 100 µM (inactive) | GI50 [16]: > 100 µM (inactive) | GI50 [17]: > 100 µM (inactive) | GI50 [18]: > 100 µM (inactive) | GI50 [19]: > 100 µM (inactive) | GI50 [20]: > 100 µM (inactive) | GI50 [21]: > 100 µM (inactive) | GI50 [22]: > 100 µM (inactive) | GI50 [23]: > 100 µM (inactive) | GI50 [24]: > 100 µM (inactive) | GI50 [25]: > 100 µM (inactive) | GI50 [26]: > 100 µM (inactive) | GI50 [27]: > 100 µM (inactive) | GI50 [28]: > 100 µM (inactive) | GI50 [29]: > 100 µM (inactive) | GI50 [31]: > 100 µM (inactive) | GI50 [32]: > 100 µM (inactive) | GI50 [33]: > 100 µM (inactive) | GI50 [35]: > 100 µM (inactive) | GI50 [36]: > 100 µM (inactive) | GI50 [37]: > 100 µM (inactive) | GI50 [38]: > 100 µM (inactive) | GI50 [39]: > 100 µM (inactive) | GI50 [40]: > 100 µM (inactive) | GI50 [56]: > 100 µM (inactive) | GI50 [57]: > 100 µM (inactive) | GI50 [42]: > 100 µM (inactive) | GI50 [43]: > 100 µM (inactive) | GI50 [44]: > 100 µM (inactive) | GI50 [45]: > 100 µM (inactive) | GI50 [58]: > 100 µM (inactive) | GI50 [46]: > 100 µM (inactive) | GI50 [47]: > 100 µM (inactive) | GI50 [48]: > 100 µM (inactive) | GI50 [49]: > 100 µM (inactive) | GI50 [50]: 63.7 µM (inactive) | GI50 [51]: > 100 µM (inactive) | GI50 [53]: > 100 µM (inactive)
